Source: ChEMBL document CHEMBL4831531, “Mangostanin Derivatives as Novel and Orally Active Phosphodiesterase 4 Inhibitors for the Treatment of Idiopathic Pulmonary Fibrosis with Improved Safety” (J Med Chem, 2021)
Activity calls are given as the source filed them. The rule behind the calls is not given here.

Legend:
[1] = molecular target: 3',5'-cyclic-AMP phosphodiesterase 4D (Homo sapiens, UniProt Q08499); experiment: Inhibition of PDE4D2 (86-413) (unknown origin) expressed in Escherichia coli BL21 assessed as using [3H]-cAMP as substrate measured for 15 mins by liquid scintillation counting analysis
Sequence of 3',5'-cyclic-AMP phosphodiesterase 4D (Q08499 whole entry): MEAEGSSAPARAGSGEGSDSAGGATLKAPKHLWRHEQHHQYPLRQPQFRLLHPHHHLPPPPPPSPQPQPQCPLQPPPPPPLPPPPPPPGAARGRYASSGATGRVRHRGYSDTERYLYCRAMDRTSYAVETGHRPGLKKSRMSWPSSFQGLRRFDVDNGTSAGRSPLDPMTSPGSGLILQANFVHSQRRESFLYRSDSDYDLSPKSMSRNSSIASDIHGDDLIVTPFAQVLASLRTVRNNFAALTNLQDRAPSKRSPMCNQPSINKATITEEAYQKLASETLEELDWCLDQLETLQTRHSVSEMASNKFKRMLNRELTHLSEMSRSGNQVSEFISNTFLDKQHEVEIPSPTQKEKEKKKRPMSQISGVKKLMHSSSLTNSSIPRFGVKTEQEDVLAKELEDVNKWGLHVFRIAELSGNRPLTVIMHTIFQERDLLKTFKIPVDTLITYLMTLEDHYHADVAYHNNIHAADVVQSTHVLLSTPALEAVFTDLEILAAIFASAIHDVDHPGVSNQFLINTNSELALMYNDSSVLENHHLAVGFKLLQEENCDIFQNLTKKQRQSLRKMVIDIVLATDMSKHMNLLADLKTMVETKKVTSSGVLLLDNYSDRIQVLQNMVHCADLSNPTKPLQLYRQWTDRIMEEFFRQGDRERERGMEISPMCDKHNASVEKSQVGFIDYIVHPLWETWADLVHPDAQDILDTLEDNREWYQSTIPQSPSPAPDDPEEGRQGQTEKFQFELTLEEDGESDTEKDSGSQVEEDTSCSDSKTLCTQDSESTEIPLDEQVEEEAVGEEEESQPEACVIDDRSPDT

[2] = molecular target: Dual specificity calcium/calmodulin-dependent 3',5'-cyclic nucleotide phosphodiesterase 1C (Homo sapiens, UniProt Q14123); experiment: Inhibition of PDE1C (147-531) (unknown origin) expressed in Escherichia coli BL21 assessed as using [3H]-cAMP as substrate measured for 15 mins by liquid scintillation counting analysis
Sequence of Dual specificity calcium/calmodulin-dependent 3',5'-cyclic nucleotide phosphodiesterase 1C (Q14123 whole entry): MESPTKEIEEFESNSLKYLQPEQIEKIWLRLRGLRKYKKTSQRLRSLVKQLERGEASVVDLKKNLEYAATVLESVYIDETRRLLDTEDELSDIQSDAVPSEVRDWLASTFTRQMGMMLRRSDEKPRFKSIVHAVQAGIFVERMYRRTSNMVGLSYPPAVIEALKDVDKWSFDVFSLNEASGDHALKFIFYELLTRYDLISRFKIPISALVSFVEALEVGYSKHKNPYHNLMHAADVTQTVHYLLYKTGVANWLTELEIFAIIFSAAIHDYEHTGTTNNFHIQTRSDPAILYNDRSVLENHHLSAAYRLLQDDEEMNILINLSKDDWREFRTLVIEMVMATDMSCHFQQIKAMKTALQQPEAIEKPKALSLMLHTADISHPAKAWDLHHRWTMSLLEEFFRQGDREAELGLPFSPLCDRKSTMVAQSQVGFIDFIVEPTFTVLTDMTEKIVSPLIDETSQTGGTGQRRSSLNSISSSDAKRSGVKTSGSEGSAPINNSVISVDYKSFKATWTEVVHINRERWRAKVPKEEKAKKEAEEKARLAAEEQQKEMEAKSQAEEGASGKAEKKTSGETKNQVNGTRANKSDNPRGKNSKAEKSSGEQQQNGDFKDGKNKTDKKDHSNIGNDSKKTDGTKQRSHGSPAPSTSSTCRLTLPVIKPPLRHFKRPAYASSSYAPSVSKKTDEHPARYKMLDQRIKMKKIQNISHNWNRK

[3] = molecular target: cGMP-dependent 3',5'-cyclic phosphodiesterase (Homo sapiens, UniProt O00408); experiment: Inhibition of PDE2A (580-919) (unknown origin) expressed in Escherichia coli BL21 assessed as using [3H]-cAMP as substrate measured for 15 mins by liquid scintillation counting analysis
Sequence of cGMP-dependent 3',5'-cyclic phosphodiesterase (O00408 whole entry): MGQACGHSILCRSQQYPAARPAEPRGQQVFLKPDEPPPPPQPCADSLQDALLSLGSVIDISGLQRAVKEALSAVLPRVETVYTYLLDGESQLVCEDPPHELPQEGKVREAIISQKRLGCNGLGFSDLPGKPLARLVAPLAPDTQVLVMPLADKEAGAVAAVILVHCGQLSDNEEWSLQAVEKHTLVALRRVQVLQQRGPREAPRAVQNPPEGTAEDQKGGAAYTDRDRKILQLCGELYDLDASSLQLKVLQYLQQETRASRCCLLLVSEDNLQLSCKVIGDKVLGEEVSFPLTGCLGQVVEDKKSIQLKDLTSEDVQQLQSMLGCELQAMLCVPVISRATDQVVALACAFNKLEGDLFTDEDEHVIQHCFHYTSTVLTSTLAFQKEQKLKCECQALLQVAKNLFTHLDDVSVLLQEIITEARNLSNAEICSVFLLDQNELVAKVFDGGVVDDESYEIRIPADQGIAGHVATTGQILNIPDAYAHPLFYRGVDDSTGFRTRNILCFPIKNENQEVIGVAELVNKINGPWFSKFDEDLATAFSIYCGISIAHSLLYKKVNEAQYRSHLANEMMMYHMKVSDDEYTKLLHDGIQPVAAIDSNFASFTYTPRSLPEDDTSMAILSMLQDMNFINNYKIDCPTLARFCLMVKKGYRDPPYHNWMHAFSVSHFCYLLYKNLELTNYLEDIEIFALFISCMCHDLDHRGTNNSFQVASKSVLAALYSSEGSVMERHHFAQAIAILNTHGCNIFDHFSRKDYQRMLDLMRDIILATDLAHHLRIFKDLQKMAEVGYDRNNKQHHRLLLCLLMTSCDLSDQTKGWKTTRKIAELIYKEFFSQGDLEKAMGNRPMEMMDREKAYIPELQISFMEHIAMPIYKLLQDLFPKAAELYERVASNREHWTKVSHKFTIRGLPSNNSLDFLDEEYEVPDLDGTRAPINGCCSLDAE

[4] = molecular target: cGMP-specific 3',5'-cyclic phosphodiesterase (Homo sapiens, UniProt O76074); experiment: Inhibition of PDE5A1 (535-860) (unknown origin) expressed in Escherichia coli BL21 assessed as using […] as substrate measured for 15 mins by liquid scintillation counting analysis
[5] = molecular target: High affinity 3',5'-cyclic-AMP phosphodiesterase 7A (Homo sapiens, UniProt Q13946); experiment: Inhibition of PDE7A1 (130-482) (unknown origin) expressed in Escherichia coli BL21 assessed as using [3H]-cAMP as substrate measured for 15 mins by liquid scintillation counting analysis
Sequence of High affinity 3',5'-cyclic-AMP phosphodiesterase 7A (Q13946 whole entry): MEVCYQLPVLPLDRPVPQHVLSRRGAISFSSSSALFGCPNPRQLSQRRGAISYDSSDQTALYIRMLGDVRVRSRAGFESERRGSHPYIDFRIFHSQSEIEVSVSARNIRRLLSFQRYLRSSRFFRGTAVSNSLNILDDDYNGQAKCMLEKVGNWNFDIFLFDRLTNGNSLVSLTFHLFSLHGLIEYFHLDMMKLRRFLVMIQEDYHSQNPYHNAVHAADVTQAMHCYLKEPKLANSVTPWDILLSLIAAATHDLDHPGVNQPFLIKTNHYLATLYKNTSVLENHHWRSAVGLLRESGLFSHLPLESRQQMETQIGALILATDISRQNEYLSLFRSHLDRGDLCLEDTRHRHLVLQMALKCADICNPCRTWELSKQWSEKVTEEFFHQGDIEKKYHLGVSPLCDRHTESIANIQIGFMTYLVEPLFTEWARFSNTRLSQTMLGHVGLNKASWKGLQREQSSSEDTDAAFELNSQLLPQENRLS

[6] = molecular target: High affinity cAMP-specific and IBMX-insensitive 3',5'-cyclic phosphodiesterase 8A (Homo sapiens, UniProt O60658); experiment: Inhibition of PDE8A1 (480-828) (unknown origin) expressed in Escherichia coli BL21 assessed as using [3H]-cAMP as substrate measured for 15 mins by liquid scintillation counting analysis
[7] = molecular target: High affinity cGMP-specific 3',5'-cyclic phosphodiesterase 9A (Homo sapiens, UniProt O76083); experiment: Inhibition of PDE9A2 (181-506) (unknown origin) expressed in Escherichia coli BL21 assessed as using […] as substrate measured for 15 mins by liquid scintillation counting analysis
Sequence of High affinity cGMP-specific 3',5'-cyclic phosphodiesterase 9A (O76083 whole entry): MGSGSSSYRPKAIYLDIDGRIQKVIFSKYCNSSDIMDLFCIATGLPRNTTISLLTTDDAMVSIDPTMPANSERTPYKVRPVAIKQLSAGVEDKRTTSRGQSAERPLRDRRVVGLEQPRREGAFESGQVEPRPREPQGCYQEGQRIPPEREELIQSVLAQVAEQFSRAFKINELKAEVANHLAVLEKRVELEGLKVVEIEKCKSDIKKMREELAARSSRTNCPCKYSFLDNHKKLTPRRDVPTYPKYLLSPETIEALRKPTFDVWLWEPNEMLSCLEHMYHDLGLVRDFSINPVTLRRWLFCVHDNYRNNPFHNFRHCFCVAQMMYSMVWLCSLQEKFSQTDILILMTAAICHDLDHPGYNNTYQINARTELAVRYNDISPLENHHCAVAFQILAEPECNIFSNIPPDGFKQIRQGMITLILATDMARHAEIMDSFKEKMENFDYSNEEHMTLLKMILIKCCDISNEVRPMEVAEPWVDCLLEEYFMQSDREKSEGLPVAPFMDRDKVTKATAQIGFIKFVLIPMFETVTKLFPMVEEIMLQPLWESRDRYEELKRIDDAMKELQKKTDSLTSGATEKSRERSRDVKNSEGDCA

[8] = Half life in Sprague-Dawley rat at10 mg/kg, po; format: ADME, organism-based; conditions: in vivo, dose 10 mg/kg
[9] = Tmax in Sprague-Dawley rat at 5 mg/kg, po; format: ADME, organism-based; conditions: in vivo
[10] = Tmax in Sprague-Dawley rat at 10 mg/kg, po; format: ADME, organism-based; conditions: in vivo
[11] = Cmax in Sprague-Dawley rat at 10 mg/kg, po; format: ADME, organism-based; design: route oral, dose 10 mg/kg; conditions: in vivo
[12] = AUC (0 to t) in Sprague-Dawley rat at 5 mg/kg, po; format: ADME, organism-based; design: dose 5 mg/kg; conditions: in vivo
[13] = AUC (0 to infinity) in Sprague-Dawley rat at 5 mg/kg, po; format: ADME, organism-based; design: route oral, time infinity, dose 5 mg/kg; conditions: in vivo
[14] = Metabolic stability in rat liver microsomes assessed as half life; format: ADME, Microsome
[15] = molecular target: T1, Cytochrome P450 1A2 (Homo sapiens, UniProt P05177); experiment: Inhibition of human hepatic CYP1A2; format: ADME, tissue-based, Liver
T1 sequence (P05177 whole entry): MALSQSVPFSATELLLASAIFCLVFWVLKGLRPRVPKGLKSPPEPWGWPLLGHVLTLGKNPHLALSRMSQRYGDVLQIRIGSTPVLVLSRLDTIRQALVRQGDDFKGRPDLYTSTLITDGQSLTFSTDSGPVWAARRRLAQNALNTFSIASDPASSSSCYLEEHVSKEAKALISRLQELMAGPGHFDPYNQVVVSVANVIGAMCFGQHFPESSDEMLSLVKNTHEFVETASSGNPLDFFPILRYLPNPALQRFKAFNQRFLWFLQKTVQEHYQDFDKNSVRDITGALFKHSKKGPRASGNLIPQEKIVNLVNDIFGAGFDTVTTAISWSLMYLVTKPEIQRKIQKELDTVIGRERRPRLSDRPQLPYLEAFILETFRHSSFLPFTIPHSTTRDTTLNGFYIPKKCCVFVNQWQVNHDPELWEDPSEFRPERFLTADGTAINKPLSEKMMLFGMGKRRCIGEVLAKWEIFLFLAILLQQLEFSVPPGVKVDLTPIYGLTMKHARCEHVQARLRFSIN

[16] = molecular target: T2, Cytochrome P450 2B6 (Homo sapiens, UniProt P20813); experiment: Inhibition of human hepatic CYP2B6; format: ADME, tissue-based, Liver
T2 sequence (P20813 whole entry): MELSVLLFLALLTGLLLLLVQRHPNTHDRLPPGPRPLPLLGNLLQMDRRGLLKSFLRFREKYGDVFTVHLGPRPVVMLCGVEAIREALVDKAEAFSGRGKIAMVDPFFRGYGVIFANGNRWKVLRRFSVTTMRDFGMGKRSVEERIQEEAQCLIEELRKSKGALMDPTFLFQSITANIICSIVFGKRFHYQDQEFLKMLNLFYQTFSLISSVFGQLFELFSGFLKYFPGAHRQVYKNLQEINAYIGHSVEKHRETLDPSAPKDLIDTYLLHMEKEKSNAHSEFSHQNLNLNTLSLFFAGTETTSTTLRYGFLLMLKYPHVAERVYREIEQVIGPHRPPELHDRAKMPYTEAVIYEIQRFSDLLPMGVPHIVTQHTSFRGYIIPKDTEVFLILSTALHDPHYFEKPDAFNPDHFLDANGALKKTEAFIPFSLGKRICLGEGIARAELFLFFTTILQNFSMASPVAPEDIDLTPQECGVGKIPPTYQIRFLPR

[17] = molecular target: Cytochrome P450 2D6 (Homo sapiens, UniProt P10635); experiment: Inhibition of human hepatic CYP2D6; format: ADME, tissue-based, Liver
Sequence of Cytochrome P450 2D6 (P10635 whole entry): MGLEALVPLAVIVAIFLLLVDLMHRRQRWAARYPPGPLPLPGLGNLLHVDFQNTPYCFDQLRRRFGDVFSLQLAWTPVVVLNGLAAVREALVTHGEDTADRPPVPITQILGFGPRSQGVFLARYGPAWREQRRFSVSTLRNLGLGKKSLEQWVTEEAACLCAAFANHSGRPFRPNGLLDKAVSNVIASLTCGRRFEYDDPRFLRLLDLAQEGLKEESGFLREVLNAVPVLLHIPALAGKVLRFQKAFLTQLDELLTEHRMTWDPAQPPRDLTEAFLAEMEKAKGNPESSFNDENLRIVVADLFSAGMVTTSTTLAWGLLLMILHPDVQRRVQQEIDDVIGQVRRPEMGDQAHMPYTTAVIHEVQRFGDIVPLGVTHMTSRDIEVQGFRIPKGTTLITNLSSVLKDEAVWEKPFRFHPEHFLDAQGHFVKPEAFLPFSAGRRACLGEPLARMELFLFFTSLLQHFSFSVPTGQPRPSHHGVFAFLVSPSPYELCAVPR

[18] = molecular target: Cytochrome P450 3A4 (Homo sapiens, UniProt P08684); experiment: Inhibition of human hepatic CYP3A4; format: ADME, tissue-based, Liver
Sequence of Cytochrome P450 3A4 (P08684 whole entry): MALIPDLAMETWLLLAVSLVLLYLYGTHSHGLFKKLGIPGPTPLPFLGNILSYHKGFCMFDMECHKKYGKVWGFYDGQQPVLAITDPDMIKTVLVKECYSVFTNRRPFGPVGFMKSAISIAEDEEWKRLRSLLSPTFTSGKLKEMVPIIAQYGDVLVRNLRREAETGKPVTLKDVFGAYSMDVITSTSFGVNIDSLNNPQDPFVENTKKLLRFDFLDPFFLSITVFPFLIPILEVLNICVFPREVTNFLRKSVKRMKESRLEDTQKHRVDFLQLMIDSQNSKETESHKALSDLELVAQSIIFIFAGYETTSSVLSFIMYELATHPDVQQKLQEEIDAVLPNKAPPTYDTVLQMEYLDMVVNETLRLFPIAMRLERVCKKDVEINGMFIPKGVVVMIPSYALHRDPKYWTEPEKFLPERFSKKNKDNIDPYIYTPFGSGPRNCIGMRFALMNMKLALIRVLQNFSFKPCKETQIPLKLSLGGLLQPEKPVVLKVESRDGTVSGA

[19] = molecular target: Cytochrome P450 2C9 (Homo sapiens, UniProt P11712); experiment: Inhibition of human hepatic CYP2C9; format: ADME, tissue-based, Liver
Sequence of Cytochrome P450 2C9 (P11712 whole entry): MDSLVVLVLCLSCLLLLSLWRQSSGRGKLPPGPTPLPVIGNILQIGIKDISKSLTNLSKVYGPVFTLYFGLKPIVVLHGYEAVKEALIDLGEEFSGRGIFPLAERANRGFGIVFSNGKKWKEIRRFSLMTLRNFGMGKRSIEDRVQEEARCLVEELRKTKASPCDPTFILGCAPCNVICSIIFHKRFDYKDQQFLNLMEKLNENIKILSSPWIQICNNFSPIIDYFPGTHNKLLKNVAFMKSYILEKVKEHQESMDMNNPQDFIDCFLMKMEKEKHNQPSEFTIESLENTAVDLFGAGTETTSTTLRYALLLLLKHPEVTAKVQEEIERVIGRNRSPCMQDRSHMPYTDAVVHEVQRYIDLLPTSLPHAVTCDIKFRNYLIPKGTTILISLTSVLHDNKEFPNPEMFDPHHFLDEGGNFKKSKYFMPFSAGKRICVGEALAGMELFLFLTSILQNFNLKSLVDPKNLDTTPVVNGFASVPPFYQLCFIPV

[20] = Acute toxicity in mouse at 1.5 g/Kg, po; conditions: in vivo, 1500 mg/kg
[21] = tested on: Rattus norvegicus; experiment: Anti-idiopathic pulmonary fibrotic activity in bleomycin-induced Sprague-Dawley rat model assessed as reversal of peak expiratory flow at 10 mg/kg, po treated for 28 consecutive days relative to control; format: functional, organism-based
[22] = tested on: Rattus norvegicus; experiment: Anti-idiopathic pulmonary fibrotic activity in bleomycin-induced Sprague-Dawley rat model assessed as reversal of enhanced pause at 10 mg/kg, po treated for 28 consecutive days relative to control; format: functional, organism-based
[23] = tested on: Rattus norvegicus; experiment: Anti-idiopathic pulmonary fibrotic activity in bleomycin-induced Sprague-Dawley rat model assessed as prevention of structural damage of lungs at 10 mg/kg, po treated for 28 consecutive days by Hematoxylin and eosin staining based assay relative to control; format: functional, organism-based
[24] = tested on: Rattus norvegicus; experiment: Anti-idiopathic pulmonary fibrotic activity in bleomycin-induced Sprague-Dawley rat model assessed as decrease in fibronectin expression of lungs at 10 mg/kg, po treated for 28 consecutive days by Western blot analysis; format: functional, organism-based
[25] = tested on: A549; experiment: Anti-idiopathic pulmonary fibrotic activity in human A549 cells assessed as reduction in TGF-beta-induced N-cadherin expression measured after 48 hrs by Western blot analysis; format: functional, cell-based; conditions: dose 10-20 µM
[26] = tested on: A549; experiment: Anti-idiopathic pulmonary fibrotic activity in human A549 cells assessed as reduction in TGF-beta-induced vimentin expression measured after 48 hrs by Western blot analysis; format: functional, cell-based; conditions: dose 10-20 µM

`COc1c(OCc2ccc(F)cc2)cc2oc3cc4c(c(OC/C=C/C(=O)O)c3c(=O)c2c1CC=C(C)C)C=CC(C)(C)O4` showed an IC50 [1] of 15 nM, an IC50 [2] of 440 nM and an IC50 [3] of 940 nM. The IC50 [4] was 93 nM, the IC50 [5] was 298 nM and the IC50 [6] was 710 nM. For the same compound, the IC50 [7] was > 10 µM, the half-life [8] was 61.2 min and the Tmax [9] was 1 h. The Tmax [10] was 1 h, the Cmax [11] was 1070 ng/mL and the AUC(0-t) [12] was 8420 ng·h/mL. For the same compound, the AUC(0-inf) [13] was 8460 ng·h/mL, the half-life [14] was 731 min and the IC50 [15] was > 25 µM. The IC50 [16] was > 25 µM, the IC50 [17] was > 25 µM and the IC50 [18] was > 25 µM. For the same compound, the IC50 [19] was 1700 nM, the Activity [20] was “Non-Toxic” and the Activity [21] was “Active”. For the same compound, the Activity [22] was “Active”, the Activity [23] was “Active” and the Activity [24] was “Active”. The Activity [25] was “Dose-Dependent Effect” and the Activity [26] was “Dose-Dependent Effect”.
